Reference: patent publication US6753338B2, “Methods for treating hypertension, angina, and congestive heart failure using of optically pure (-) amlodipine” (Sepracor Inc., priority 1991, dated 2004)

system: K+-depolarized isolated guinea pig ileal segment; assay: Calcium antagonism, guinea pig ileum (in vitro); conditions: Cavia porcellus; reference agents; K+-depolarized ileal segment in Ca-free physiological salt solution, 37° C., added calcium 20 μg/ml CaCl; read-out: ED100 (inhibition of contractile response to added calcium)
Text: Calcium Antagonism, Guinea Pig Ileum (in Vitro):

Structure (SMILES)	IC100 [µg/mL]
CN1CCC(=C2c3ccccc3C=Cc3ccccc32)CC1 [cyproheptadine]	0.025
CN(C)CCOC(c1ccccc1)c1ccccc1 [diphenhydramine]	1
COc1ccc(Cc2nccc3cc(OC)c(OC)cc23)cc1OC [papaverine]	4
CC(C)NCC(O)COc1cccc2ccccc12 (stereo not shown) [propranolol]	4
Fc1ccc(C(c2ccc(F)cc2)N2CCN(C/C=C/c3ccccc3)CC2)cc1 [flunarizine]	0.1
COc1ccc([C@@H]2Sc3ccccc3N(CCN(C)C)C(=O)[C@@H]2OC(C)=O)cc1 [diltiazem]	0.01
COc1ccc(CN(CCN(C)C)c2ccccn2)cc1 [mepyramine]	> 5
CC(CN1c2ccccc2Sc2ccccc21)N(C)C (stereo not shown) [promethazine]	0.25

same assay, conditions: reference agents; K+-depolarized ileal segment in Ca-free physiological salt solution, 37° C., added calcium 20 μg/ml CaCl

Structure (SMILES)	ED100 (inhibition of contractile response to added calcium) [µg/mL]
C(=C\c1ccccc1)/CN1CCN(C(c2ccccc2)c2ccccc2)CC1 [cinnazrizine]	1
CC(C)[N+]1(C)[C@@H]2CC[C@H]1CC(OC(=O)C(CO)c1ccccc1)C2.[Br-] (stereo partly shown) [ipratropium bromide]	> 2
CC(COc1ccccc1)NC(C)C(O)c1ccc(O)cc1 (stereo not shown) [isoxuprine]	4

system: potassium-depolarized rat aorta; assay: not given; conditions: in vitro; cited from earlier work

Structure (SMILES)	activity relative to the racemic mixture in antagonizing calcium-induced constriction
CCOC(=O)C1=C(COCCN)NC(C)=C(C(=O)OC)C1c1ccccc1Cl (single isomer, unassigned; isomer 3) [(−) isomer, 3-ethyl 5-methyl (−)-2-[2-aminoethoxy)methyl]-4-(2-chlorophenyl)-1,4-dihydro-6-methyl-3,5-pyridine dicarboxylate]	twice as active as the racemic mixture

system: β-adrenergic; assay: not given; conditions: L-form versus D-enantiomer; cited from earlier work

Structure (SMILES)	potency relative to the D-enantiomer [times]
CC(C)NC[C@H](O)COc1cccc2ccccc12	100
